Data as given in ChEMBL document CHEMBL4346762, “Design, synthesis and anticancer activity of constrained sphingolipid-phenoxazine/phenothiazine hybrid constructs targeting protein phosphatase 2A” (Bioorg Med Chem Lett, 2019).
pIC50: −log10 of the molar value.

Key:
[1] = Inhibition of protein phosphatase 2A in mouse FL5.12 cells assessed as reduction in cell viability incubated for 48 hrs by propidium iodide staining based flow cytometric analysis; conditions: FL5.12, 48 h
FL5.12 [2] = assay: (§1) Inhibition of protein phosphatase 2A in mouse FL5.12 cells assessed as induction of surface nutrient transporter loss by measuring downregulation of CD98 expression level at 2.5 uM preincubated with PP2A inhibitor calyculin A for 60 mins followed by compound addition and measured after 2 hrs by flow cytometric analysis relative to control; assay type: cell-based; parameters: scale not given: the % may be the effect or the level left
FL5.12 [3] = assay: as §1, with “10” for “2.5”; assay type: cell-based; parameters: scale not given: the % may be the effect or the level left
FL5.12 [4] = assay: Induction of vacuolation in mouse FL5.12 cells assessed as vacuolation score at 2.5 uM preincubated with PP2A inhibitor calyculin A for 60 mins followed by compound addition and measured after 2 hrs by fluorescence microscopic method; assay type: functional
FL5.12 [5] = assay: Induction of vacuolation in mouse FL5.12 cells assessed as vacuolation score at 10 uM preincubated with PP2A inhibitor calyculin A for 60 mins followed by compound addition and measured after 2 hrs by fluorescence microscopic method; assay type: functional
Mus musculus = species: Mus musculus; assay: Ratio of IC50 for SH-BC-893 to IC50 for test compound for inhibition of protein phosphatase 2A in mouse FL5.12 cells assessed as reduction in cell viability incubated for 48 hrs by propidium iodide staining based flow cytometric analysis
FL5.12 [6] = assay: as §1, with “40” for “2.5”; assay type: cell-based; parameters: scale not given: the % may be the effect or the level left
FL5.12 [7] = assay: Induction of vacuolation in mouse FL5.12 cells assessed as vacuolation score at 40 uM preincubated with PP2A inhibitor calyculin A for 60 mins followed by compound addition and measured after 2 hrs by fluorescence microscopic method; assay type: functional

CCCCCCCCc1ccc([C@H]2CCN[C@@H]2COCCCN2c3ccccc3Oc3ccccc32)cc1.Cl
pIC50 [1]: 5.34
Activity (FL5.12 [2]): 4%
Activity (FL5.12 [3]): 27%
Activity (FL5.12 [4]): 2
Activity (FL5.12 [5]): 23
Ratio IC50 (Mus musculus): 2 to 3

CCCCCCCCc1ccc([C@H]2CCN[C@@H]2COCCCC(O)c2cnc(OC)nc2OC)cc1.Cl (some centres not stated)
pIC50 [1]: 5.57
Activity (FL5.12 [2]): 10%
Activity (FL5.12 [3]): 60%
Activity (FL5.12 [4]): 8
Activity (FL5.12 [5]): 15

CCCCCCCCc1ccc([C@H]2CCN[C@@H]2CO)cc1.Cl
pIC50 [1]: 5.74
Activity (FL5.12 [2]): 32%
Activity (FL5.12 [3]): 69%
Activity (FL5.12 [4]): 46
Activity (FL5.12 [5]): 60

CCCCCCCCc1ccc([C@H]2CCN[C@@H]2COCCCCN2c3ccccc3Oc3ccccc32)cc1.Cl
pIC50 [1]: 5.24
Activity (FL5.12 [2]): 5%
Activity (FL5.12 [3]): 15%
Activity (FL5.12 [4]): 7
Activity (FL5.12 [5]): 15
Ratio IC50 (Mus musculus): 2 to 3

CCCCCCCCc1ccc([C@H]2CCN[C@@H]2COCCCCc2cccnc2)cc1.Cl
pIC50 [1]: 5.68
Activity (FL5.12 [2]): 40%
Activity (FL5.12 [3]): 64%
Activity (FL5.12 [4]): 12
Activity (FL5.12 [5]): 11

CCCCCCCCc1ccc([C@H]2CCN[C@@H]2COCCCCCN2c3ccccc3Oc3ccccc32)cc1.Cl
pIC50 [1]: 5.07
Activity (FL5.12 [3]): -3%
Activity (FL5.12 [6]): 38%
Activity (FL5.12 [5]): 16
Activity (FL5.12 [7]): 66

CCCCCCCCc1ccc([C@H]2CCN[C@@H]2COCCCCCN2c3ccccc3Sc3ccccc32)cc1.Cl
pIC50 [1]: 5.12
Activity (FL5.12 [3]): -8%
Activity (FL5.12 [6]): 29%
Activity (FL5.12 [5]): 18
Activity (FL5.12 [7]): 42

OCCN1CCN(CCCN2c3ccccc3Sc3ccc(Cl)cc32)CC1 [PERPHENAZINE]
pIC50 [1]: 5.32
Activity (FL5.12 [2]): 19%
Activity (FL5.12 [3]): 58%
Activity (FL5.12 [4]): 1
Activity (FL5.12 [5]): 3

O=S(=O)(N[C@@H]1CCC[C@H](N2c3ccccc3Oc3ccccc32)[C@H]1O)c1ccc(OC(F)(F)F)cc1
pIC50 [1]: 4.82
Activity (FL5.12 [3]): 7%
Activity (FL5.12 [6]): 31%
Activity (FL5.12 [5]): 0
Activity (FL5.12 [7]): 11

CCCCCCCCc1ccc([C@H]2CCN[C@@H]2COCCCC(O)c2cccnc2)cc1.Cl (some centres not stated)
pIC50 [1]: 5.62
Activity (FL5.12 [2]): 24%
Activity (FL5.12 [3]): 51%
Activity (FL5.12 [4]): 8
Activity (FL5.12 [5]): 17
